Results from patent publication US20250195463A1, “ORGANOMETALLIC COMPLEX, CONTROLLED-RELEASE MULTI-FUNCTIONAL DRUG, PHARMACEUTICAL COMPOSITION, PROCESSES FOR THE PREPARATION THEREOF AND THEIR USE” (FACULDADE DE CIÊNCIAS DA UNIVERSIDADE DE LISBOA, priority 2022, published 2025).
pIC50: −log10 of the molar value.

Columns and labels:
[1] = Stability in organic medium (dimethyl sulfoxide) by UV-Vis spectroscopy; assay type: physicochemical; details: for Relative variation of the maximum absorbance of the π→π* transitions: band 289-300 nm (λmax in column head); for Relative variation of the maximum absorbance of the charge transfer bands: band 357-425 nm (λmax in column head)
Protocol: (§1) The stability of the complexes 4-11 in organic and aqueous media was evaluated over 24 h by UV-Vis spectroscopy at room temperature, in dark, on a Jasco V-660 spectrometer using quartz cuvettes (1 cm optical path length). The electronic spectra (270-900 nm) were acquired at regular periods of time (0 h, 0.25 h, 0.5 h, 0.75 h, 1 h, 2 h, 3 h, 4 h, 5 h, 6 h, 24 h) for solutions of 100% dimethyl sulfoxide (complexes 4-11) and 5% dimethyl sulfoxide/95% Dulbecco's Modified Eagle Medium (complexes 4, 5 and 8-11) or 10% dimethyl sulfoxide/90% Dulbecco's Modified Eagle Medium (complexes 6 and 7) at concentrations ranging from 7.0×10^-5 M to 3.0×10^-4 M.

[2] = tested on: MDA-MB-231 (FGFR−); experiment: MTT cytotoxicity assay; details: MDA-MB-231
Protocol: By way of example, the in vitro cytotoxicity of the conjugate RuPC1, complex 4 and peptide P2 was determined in four human breast cancer cell lines with different levels of expression of the receptor FGFR, namely MDA-MB-231 (FGFR−), MCF-7 (FGFR−), SK-BR-3 (FGFR+), and MDA-MB-134-VI (FGFR+). The cytotoxicity of RuPC1 was also determined in the stated cell lines at controlled pH 6.8 and 7.4. The cytotoxicity of the complexes 5, 8, 9, and the reference complex (2,2′-bipyridyl)(triphenylphosphane)(f-cyclopentadienyl)ruthenium(II) trifluoromethanesulfonate, [RuCp(PPh3)(bipy)][CF3SO3] (TM34) was only determined in the cell line MDA-MB-231. All the cell lines were from the American Type Culture Collection (ATCC) and were cultured in Dulbecco's Modified Eagle Medium+Glutamax-I (Gibco) supplemented with 10% fetal bovine serum (FBS) and 1% antibiotics, excepting the MDA-MB-134-VI for which it was used the double amount of FBS. The cell cultures were kept in an incubator Heraeus at 37° C. under humidified atmosphere at 5% CO2. The cell viability was evaluated resorting to the MTT ([3-(4,5-dimethylthiazol-2-yl)-2,5-diphenyltetrazolium bromide]) colorimetric assay, which is based on the reduction of the tetrazolium salt to purple formazan by mitochondrial dehydrogenases in metabolically active cells. For the assays, the cells were seeded in 96-well plates (2×10^4 to 3×10^4 cells/200 μL) and allowed to adhere overnight. The compounds were first dissolved in dimethyl sulfoxide to obtain 10 mM stock solutions, further used to prepare the working solutions, at 0.1 to 100 μM, by dilution in the cell culture medium. Alternatively, for the assays at controlled pH 6.8 and 7.4, RuPC1 was first dissolved in a solution of 15% dimethyl sulfoxide/85% phosphate buffer (10 mM in water) to obtain 1.5 mM stock solutions further incubated for 48 hours at both pH values prior to be used to prepare the working solutions, at 0.1 to 50 μM, by dilution in the cell culture medium. In both cases, after continuous exposure of the cells to the compounds for 48 h at 37° C., the medium was removed and the cells were incubated with 200 μL of MTT solution (0.5 mg/mL) for 3 h. Then, the solution was discarded and the purple formazan formed by the viable cells was dissolved in 200 μL of dimethyl sulfoxide. The cell viability (%) was determined relative to the control (cells incubated without compounds) by measuring the absorbance at 570 nm on a PowerWave Xs Bio-Tek Instruments plate spectrophotometer. The respective values of the half maximal inhibitory concentration (IC50) were calculated with the software GraphPad Prism. All the compounds were tested in at least two independent experiments, each comprising six replicates per concentration.

[3] = Stability in aqueous medium (dimethyl sulfoxide/Dulbecco's Modified Eagle Medium) by UV-Vis spectroscopy; assay type: physicochemical; details: 5% dimethyl sulfoxide/95% Dulbecco's Modified Eagle Medium; for Relative variation of the maximum absorbance of the π→π* transitions: band 292-296 nm (λmax in column head); for Relative variation of the maximum absorbance of the charge transfer bands: band 358-400 nm (λmax in column head)
Protocol: as §1

CCC(=O)C1=C[CH]([Ru-]2([PH](c3ccccc3)(c3ccccc3)c3ccccc3)[n+]3ccccc3-c3cccc[n+]32)C=C1.O=S(=O)([O-])C(F)(F)F (stereo not shown) [compound 8]
Relative variation of the maximum absorbance of the π→π* transitions ([1]; time 0 h): 0.0%
Relative variation of the maximum absorbance of the charge transfer bands ([1]; time 0 h): 0.0%
Relative variation of the maximum absorbance of the π→π* transitions ([1]; time 0.25 h): 0.0%
Relative variation of the maximum absorbance of the charge transfer bands ([1]; time 0.25 h): 0.0%
Relative variation of the maximum absorbance of the π→π* transitions ([1]; time 0.5 h): 0.2%
Relative variation of the maximum absorbance of the charge transfer bands ([1]; time 0.5 h): 0.1%
Relative variation of the maximum absorbance of the π→π* transitions ([1]; time 0.75 h): 0.0%
Relative variation of the maximum absorbance of the charge transfer bands ([1]; time 0.75 h): 0.0%
Relative variation of the maximum absorbance of the π→π* transitions ([1]; time 1 h): 0.1%
Relative variation of the maximum absorbance of the charge transfer bands ([1]; time 1 h): 0.3%
Relative variation of the maximum absorbance of the π→π* transitions ([1]; time 2 h): 0.0%
Relative variation of the maximum absorbance of the charge transfer bands ([1]; time 2 h): 0.2%
Relative variation of the maximum absorbance of the π→π* transitions ([1]; time 3 h): −0.3%
Relative variation of the maximum absorbance of the charge transfer bands ([1]; time 3 h): 0.0%
Relative variation of the maximum absorbance of the π→π* transitions ([1]; time 4 h): −0.1%
Relative variation of the maximum absorbance of the charge transfer bands ([1]; time 4 h): 0.0%
Relative variation of the maximum absorbance of the π→π* transitions ([1]; time 5 h): −0.1%
Relative variation of the maximum absorbance of the charge transfer bands ([1]; time 5 h): −0.3%
Relative variation of the maximum absorbance of the π→π* transitions ([1]; time 6 h): −0.2%
Relative variation of the maximum absorbance of the charge transfer bands ([1]; time 6 h): 0.3%
Relative variation of the maximum absorbance of the π→π* transitions ([1]; time 24 h): −0.2%
Relative variation of the maximum absorbance of the charge transfer bands ([1]; time 24 h): 0.2%
IC50 range in words ([2]; Example 24): sub-micromolar range
pIC50 ([2]; read-out: Cytotoxic activity expressed as IC50, Table 5, 48 h, 37° C.): 6.25
Relative variation of the maximum absorbance of the π→π* transitions ([3]; time 0 h): 0.0%
Relative variation of the maximum absorbance of the charge transfer bands ([3]; time 0 h): 0.0%
Relative variation of the maximum absorbance of the π→π* transitions ([3]; time 0.25 h): −0.1%
Relative variation of the maximum absorbance of the charge transfer bands ([3]; time 0.25 h): −0.3%
Relative variation of the maximum absorbance of the π→π* transitions ([3]; time 0.5 h): −0.2%
Relative variation of the maximum absorbance of the charge transfer bands ([3]; time 0.5 h): −0.6%
Relative variation of the maximum absorbance of the π→π* transitions ([3]; time 0.75 h): 0.0%
Relative variation of the maximum absorbance of the charge transfer bands ([3]; time 0.75 h): −0.7%
Relative variation of the maximum absorbance of the π→π* transitions ([3]; time 1 h): −0.1%
Relative variation of the maximum absorbance of the charge transfer bands ([3]; time 1 h): −0.9%
Relative variation of the maximum absorbance of the π→π* transitions ([3]; time 2 h): 0.0%
Relative variation of the maximum absorbance of the charge transfer bands ([3]; time 2 h): −0.7%
Relative variation of the maximum absorbance of the π→π* transitions ([3]; time 3 h): 0.1%
Relative variation of the maximum absorbance of the charge transfer bands ([3]; time 3 h): −0.6%
Relative variation of the maximum absorbance of the π→π* transitions ([3]; time 4 h): 0.0%
Relative variation of the maximum absorbance of the charge transfer bands ([3]; time 4 h): −0.6%
Relative variation of the maximum absorbance of the π→π* transitions ([3]; time 5 h): 0.1%
Relative variation of the maximum absorbance of the charge transfer bands ([3]; time 5 h): −0.6%
Relative variation of the maximum absorbance of the π→π* transitions ([3]; time 6 h): 0.1%
Relative variation of the maximum absorbance of the charge transfer bands ([3]; time 6 h): −0.5%
Relative variation of the maximum absorbance of the π→π* transitions ([3]; time 24 h): 6.0%
Relative variation of the maximum absorbance of the charge transfer bands ([3]; time 24 h): −0.9%
